This is an account of results in patent publication US7601745B2, “Heterocyclic NF-kB inhibitors” (4SC AG, priority 2004, dated 2009).

One test deals with A549-NF-κB-SEAP reporter cells. As to the kind of experiment: Inhibition of NF-κB-induced inflammation ([…] NINA Instant Assay, SEAP reporter). The following applies: compounds of formula (I); TNF-α stimulated reporter cells; test concentration not given. The class given is cell-based. The method in brief: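 Reporter cells reactivated 18 h at 37° C, pre-incubated 4.5 h with compound (0.01 up to 100 μM), then stimulated with 2 ng/ml TNF-α for 22 h. SEAP measured by CSPD chemiluminescence (40 min) after endogenous phosphatase inactivation; EC50 fitted from quadruplicates.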
As for `O=C(c1csc(C2CCN(C(=O)C3COc4ccccc4O3)CC2)n1)N1CCN(c2cccc(C(F)(F)F)c2)CC1` (stereo not drawn) [compound 217], the “Biological activity (NF-κB inflammation assay, inhibition)” value is “+++ (“+++” stands for 90-100% inhibition)”.
For `O=C(c1csc(C2CCN(C(=O)c3cc(-c4ccc(Cl)cc4)oc3C(F)(F)F)CC2)n1)N1CCN(c2cccc(C(F)(F)F)c2)CC1` [compound 218], the “Biological activity (NF-κB inflammation assay, inhibition)” value was “+++ (“+++” stands for 90-100% inhibition)”.
Same read-out and setting: in the case of `Cc1noc(C)c1C(=O)N1CCC(c2nc(C(=O)N3CCN(c4cccc(C(F)(F)F)c4)CC3)cs2)CC1` [compound 219] it was “+ (“+” stands for 50-80% inhibition)”; in that of `Cc1nnsc1C(=O)N1CCC(c2nc(C(=O)N3CCN(c4cccc(C(F)(F)F)c4)CC3)cs2)CC1` [compound 221], “+ (“+” stands for 50-80% inhibition)”.
Still for that read-out and setting: in the case of `O=C(c1cccnc1)N1CCC(c2nc(C(=O)N3CCN(c4cccc(C(F)(F)F)c4)CC3)cs2)CC1` [compound 222] it was “+ (“+” stands for 50-80% inhibition)”.
`O=C(c1csc(C2CCN(C(=O)c3ccccc3OC(F)(F)F)CC2)n1)N1CCN(c2cccc(C(F)(F)F)c2)CC1` [compound 223]: the “Biological activity (NF-κB inflammation assay, inhibition)” value is on record as “+++ (“+++” stands for 90-100% inhibition)”.
Still for that read-out and setting: with `O=C(CCC1CCCC1)N1CCC(c2nc(C(=O)N3CCN(c4cccc(C(F)(F)F)c4)CC3)cs2)CC1` [compound 224] the entry was “+ (“+” stands for 50-80% inhibition)”; with `COc1cc(C(=O)N2CCC(c3nc(C(=O)N4CCN(c5cccc(C(F)(F)F)c5)CC4)cs3)CC2)cc(OC)c1OC` [compound 225], “+ (“+” stands for 50-80% inhibition)”.
On the same count and under the same terms, with `CN(C)c1cccc(C(=O)N2CCC(c3nc(C(=O)N4CCN(c5cccc(C(F)(F)F)c5)CC4)cs3)CC2)c1` [compound 226] the entry was “++ (“++” means 80-90%)”; with `COc1ccccc1N1CCN(C(=O)c2csc(C3CCN(C(=O)Cc4ccc(F)cc4)CC3)n2)CC1` [compound 229], “+ (“+” stands for 50-80% inhibition)”; with `O=C(c1csc(C2CCN(C(=O)c3ccco3)CC2)n1)N1CCN(c2cccc(C(F)(F)F)c2)CC1` [compound 230], “+ (“+” stands for 50-80% inhibition)”.
On to `CCCCN1CCN(C(=O)c2csc(C3CCN(C(=O)Cc4ccc(F)cc4)CC3)n2)CC1` [compound 231], for which the “Biological activity (NF-κB inflammation assay, inhibition)” value was “+ (“+” stands for 50-80% inhibition)”.
In the case of `O=C(Cc1ccc(F)cc1)N1CCC(c2nc(C(=O)N3CCN(c4ccccn4)CC3)cs2)CC1` [compound 237], the “Biological activity (NF-κB inflammation assay, inhibition)” value is “+ (“+” stands for 50-80% inhibition)”.
Still for that read-out and setting: with `O=C(Cc1ccc(F)cc1)N1CCC(c2nc(C(=O)N3CCN(c4cccc(Cl)c4)CC3)cs2)CC1` [compound 238] the entry was “+ (“+” stands for 50-80% inhibition)”.

The same test, now with this note: compounds of formula (Ic); TNF-α stimulated reporter cells; test concentration not given.
Regarding `COc1cc2c(cc1OC)CN(C(=O)c1csc(C3CCN(C(=O)Cc4ccc(F)cc4)CC3)n1)C(C)C2` (stereo not drawn) [compound 232], the “Biological activity (NF-κB inflammation assay, inhibition)” value is “+ (“+” stands for 50-80% inhibition)”.
The same measure, in the same setting: in the case of `CC1c2cc(O)c(O)cc2CCN1C(=O)c1csc(C2CCN(C(=O)Cc3ccc(F)cc3)CC2)n1` (stereo not drawn) [compound 233] it was “+ (“+” stands for 50-80% inhibition)”; in that of `COc1cc2c(cc1OC)C(C)N(C(=O)c1csc(C3CCN(C(=O)Cc4ccc(F)cc4)CC3)n1)CC2` (stereo not drawn) [compound 234], “+ (“+” stands for 50-80% inhibition)”.
Still for that read-out and setting: in the case of `CNc1ccc(Cl)cc1C1c2ccccc2CCN1C(=O)c1csc(C2CCN(C(=O)Cc3ccc(F)cc3)CC2)n1` (stereo not drawn) [compound 235] it was “+ (“+” stands for 50-80% inhibition)”.
